SMILES strings stand for the structures. Where two headings read alike, the source gives them in different places.

These results are taken from publication PMC12645191, “Dicarboxylate and dicarboxylic acid appended supramolecular self-associating amphiphiles as antimicrobial agents against high priority bacterial pathogens” (Organic & Biomolecular Chemistry, 2025).

A short description of data set [1]: protein binding in human plasma by equilibrium dialysis. The data set is classed as in vitro ADME. The conditions noted are these: human plasma, 5 µM, 37 °C; for recovery at 6 h, 5 µM / remaining at 6 h, 5 µM / fraction unbound at 6 h, 5 µM: human; for remaining at 6 h, 5 µM / fraction unbound at 6 h, 5 µM: plasma. As to the method:
Metabolic stability was assessed in mouse and rat liver microsomes. […] A plasma protein binding assay was performed to assess the extent of compound binding to plasma proteins. This is key as only unbound compound is free to distribute and exert a pharmacological effect. […] To assess the potential for this sub-class of SSAs to be developed as drugs for oral administration, Caco-2 permeability assays were also performed, as a cellular model indicative of human intestinal permeability. […] The […] MS/MS analysis. Samples were analysed using a Shimadzu liquid chromatography system coupled to a Triple Quad 6500+ mass spectrometry (AB Inc.) Separation of compounds was achieved using an HSS T3 column (50 x 2.1 mm) at a temperature of 40 °C and a binary mobile phase gradient at a flow rate of 0.7 mL/min. […] This was ramped to 95 % solvent B at 0.7 minutes, held for 0.5 minutes and then […] returned to initial conditions. Sample analysis was by electrospray ionisation. Protein Binding Measurements in Human Plasma by Using Equilibrium Dialysis Method : The fraction unbound in human plasma (P -KB, Ltd People's hospital of Shandong) were measured using 96-well Equilibrium Dialysis Plate (HTDialysis LLC, Gales Ferry, CT). Human plasma containing 5 μM test compound were dialysed against dialysis buffer (PBS) with initial samples taken to allow for assessment of plasma stability and recovery before the plate was incubated for 6 hours at 37 °C at 5 % CO2. Samples were removed at 6 hours, and all samples […] appropriate analytical internal standard. Samples were centrifuged at 3,220 g for 30 minutes (Eppendorf 5810R) to precipitate protein and enable sampling of supernatant prior to appropriate dilution for liquid chromatography mass -spectrometry (LC-MS/MS) analysis. Samples were analysed using a Shimadzu coupled to a triple Quad 6500 + (AB Inc., Illinois). Separation of analytes was achieved using a Xselect Hss T3 (2.1 x 50 mm) column at a temperature of 40 °C and a binary mobile phase gra dient at a flow rate of 0.8 mL/min. Initial […] formic acid in acetonitrile); this was ramped to 98 % B at 0.5 min, held for 0.4 min and then immediately returned to initial conditions. Sample analysis was by electrospray ionisation in positive ion mode. Bi-directional Permeability in Caco-2 Cell Line: The bi-directional permeability in Caco-2 cell lines was determined by seeding cells onto an HTS Transwell plate. Cells were cultivated for 14-18 days in a cell culture incubator at 37 °C, 5 % CO2, 95 % relative humidity. Cell culture medium was replaced every other day. To assess monolayer integrity the transepithelial electrical resistance (TEER) across the monolayer was measured using Millicell Epithelial volt-ohm meter prior to assay and Lucifer yellow (LY) fluorescence measurement post-assay. Test and control compounds were prepared in DMSO and diluted in Hank's Balanced Saline […] Compound was added to the donor compartment of the transwell plate for both apical to basolateral (A>B) and basolateral to apical (B>A) measurements, with blank HBSS being added to the receiver compartment. The transwell plate was then incubated at 37 °C, 5 % CO2 for 2 hours. 5
(Equilibrium dialysis compares concentrations on both sides of a semipermeable membrane.)

The test system of data set [2] is Caco-2 cell line. Briefly: bi-directional permeability in Caco-2 cell line. In kind it is in vitro ADME, human. As to the method: Metabolic stability was assessed in mouse and rat liver microsomes. Microsomes are subcellular fractions of hepatocytes and contain CYP450s, the predominant enzymes involved in first-pass metabolism.[66] […] A plasma protein binding assay was performed to assess the extent of compound binding to plasma proteins. This is key as only unbound compound is free to distribute and exert a pharmacological effect. […] To assess the potential for this sub-class of SSAs to be developed as drugs for oral administration, Caco-2 permeability assays were also performed, as a cellular model indicative of human intestinal permeability. […]
Sample analysis was by electrospray ionisation. […]
Bi-directional Permeability in Caco-2 Cell Line:
The bi-directional permeability in Caco-2 cell lines was determined by seeding cells onto an HTS Transwell plate. Cells were cultivated for 14-18 days in a cell culture incubator at 37 °C, 5 % CO2, 95 % relative humidity. Cell culture medium was replaced every other day. To assess monolayer integrity the transepithelial electrical resistance (TEER) across the monolayer was measured using Millicell Epithelial volt-ohm meter prior to assay and Lucifer yellow (LY) fluorescence measurement post-assay.
Test and control compounds were prepared in DMSO and diluted in Hank’s Balanced Saline […]
Solution (HBSS, pH 7.4) to a final concentration of 5 or 10 µM. Compound was added to the […]
donor compartment of the transwell plate for both apical to basolateral (A>B) and basolateral […]
to apical (B>A) measurements, with blank HBSS being added to the receiver compartment.
The transwell plate was then incubated at 37 °C, 5 % CO2 for 2 hours.
In general terms: Caco-2 cells form a polarised layer with tight junctions and transporters.

[3] abbreviates: 6 hours, read-out: % Bound (converted).
The mark [4] stands for this setting: Caco-2, 5 or 10 µM, HBSS pH 7.4, 2 hours.

`O=C(O)CC[C@H](NC(=O)Nc1ccc(C(F)(F)F)cc1)C(=O)O` [SSA 1]: the recovery at 6 h, 5 µM in data set [1] (6 hours) amounted to 97.3%. Also, the share remaining at 6 h, 5 µM in data set [1] worked out at 104%. Besides, the fraction unbound at 6 h, 5 µM in data set [1] (setting [3]) was 0.217; in data set [1] (6 hours, read-out: % Unbound) it was 0.217.
On to `O=C(O)CC[C@H](NC(=O)Nc1ccc(C(F)(F)F)cc1)C(=O)O` [SSA 2], for which, in data set [2] (Caco-2), the “Efflux Ratio” value worked out at 1.71, the “Recovery (%) AP-BL” value turned out to be 99.71% and the “Recovery (%) BL-AP” value turned out to be 80.26%. Besides, in data set [2] (setting [4]), the “Papp (A-B)” value is listed as 0.14 10-6, cm/s and the “Papp (B-A)” value is listed as 0.24 10-6, cm/s. Besides, the “% Remaining at 6 hr” value in data set [1] is listed as 108.64%. In data set [1] (6 hours), the “% Bound” value came to 78.73%, the “% Recovery” value came to 97.50% and the “% Unbound” value was 21.27%.
As to `O=C(O)CC[C@@H](NC(=O)Nc1ccc(C(F)(F)F)cc1)C(=O)O` [SSA 3], the recovery at 6 h, 5 µM in data set [1] (6 hours) amounted to 99.6%. Moreover, the fraction remaining at 6 h, 5 µM in data set [1] came to 102%. The fraction unbound at 6 h, 5 µM in data set [1] (setting [3]) is 0.23; in data set [1] (6 hours, read-out: % Unbound), 0.23.
In data set [1] (6 hours), `O=C(O)CC[C@H](NC(=O)Nc1ccc(Br)cc1)C(=O)O` [SSA 9] gave a recovery at 6 h, 5 µM of 94.9%. The amount remaining at 6 h, 5 µM in data set [1] came out at 106%. Further, the fraction unbound at 6 h, 5 µM in data set [1] (setting [3]) was 0.166; in data set [1] (6 hours, read-out: % Unbound) it was 0.166.
